Results on three compounds are retold here after article PMC4527839, “Synergistic Activity of the Plant Defensin HsAFP1 and Caspofungin against Candida albicans Biofilms and Planktonic Cultures” (PLoS ONE, 2015).

The term MIC50 denotes an inhibitory concentration at the 50% level, which refers to growth in some studies and to a panel of isolates in others.

Test [1] relates to C. albicans SC5314 biofilms. Briefly: Checkerboard assay, biofilm formation inhibition. In kind it is cell-based. The note with it: Candida albicans, CTB assay, mean ± SEM. The protocol:
The Biofilm Inhibitory Concentration 50 value (BIC50; the minimum concentration required to reduce biofilm formation by 50% as compared to control treatment) of rHsAFP1 was determined using the following antibiofilm assay: a C. albicans SC5314 overnight culture, grown in YPD, was diluted to an optical density (600 nm) of 0.1 in RPMI 1640 medium and 100 μL of this suspension was added to the wells of a round-bottomed microtitre plate (TPP, Tradingen, Switzerland). After 1 h of adhesion at 37°C, the medium was aspirated and the biofilms were washed with 100 μL phosphate-buffered saline (PBS) to remove non-adherent cells. Fresh RPMI 1640 medium, followed by an rHsAFP1 concentration series was added to the biofilms. The DMSO concentration was similar to that in the checkerboard assays, i.e. 0.5%. Biofilms were allowed to grow for 24 h at 37°C and were subsequently washed with PBS and quantified with CellTiter-Blue (CTB; Promega, WI, USA)) by adding 100 μL of CTB diluted 1/10 in PBS to each well. After 1 h of incubation in the dark at 37°C, the fluorescence was measured with a fluorescence spectrometer (λEx/λEm: 535/590 nm). The fluorescence values of the samples were corrected by subtracting the average fluorescence value of the CTB of uninoculated wells (blank). The percentage of surviving biofilm cells was calculated relative to the control treatment (0.5% DMSO).
C. albicans biofilms or C. albicans planktonic cultures were grown as described above. A combination of rHsAFP1 and antimycotic (caspofungin or amphotericin B), two-fold diluted across the columns and rows of a 96-well plate, respectively, was added to the planktonic culture or to the biofilms. […] Synergy was determined by calculating the Fractional Inhibitory Concentration Index (FICI), in which the actual concentration of compound A (i.e. rHsAFP1) in the checkerboard experiment was used, as indicated in Tables 1–3 and 4.
(§1) Data were analysed with GraphPad Prism (GraphPad Software, Inc., CA, USA). […]

For test [2], the system named is C. albicans SC5314 biofilms (24 hours-old). Description: Checkerboard assay, biofilm eradication. In kind it is cell-based. The note with it: Candida albicans, antimycotic alone, [rHsAFP1] 0 μM, CTB assay, mean ± SEM, n ≥ 3, read-out: BEC50 CAS or AMB. The protocol:
The Biofilm Eradicating Concentration 50 value (BEC50; the minimum concentration required to reduce the viability of the cells in a pre-grown biofilm by 50% as compared to control treatment) of rHsAFP1 was determined using the BEC50 determination assay as described by De Cremer and co-workers. Briefly, a C. albicans SC5314 overnight culture, grown in YPD, was diluted to an optical density (600 nm) of 0.1 in RPMI 1640 medium and 100 μL of this suspension was added to the wells of a round-bottomed microtitre plate (TPP, Tradingen, Switzerland). After 1 h of adhesion, the biofilms were washed with 100 μL PBS to remove non-adherent cells, followed by addition of 100 μL RPMI 1640 medium. The biofilms were allowed to grow for 24 h at 37°C. Next, an rHsAFP1 concentration series in RPMI was added to the biofilms. […] The biofilms were incubated for another 24 h at 37°C, after which they were washed and quantified with CTB as described above.
(§2) C. albicans biofilms or C. albicans planktonic cultures were grown as described above. […] Synergy was determined by calculating the Fractional Inhibitory Concentration Index (FICI), in which the actual concentration of compound A (i.e. rHsAFP1) in the checkerboard experiment was used, as indicated in Tables 1–3 and 4.
as §1

The subject of test [3] is C. albicans SC5314 planktonic cultures. Briefly: Checkerboard assay, planktonic cultures. It is filed as cell-based. The following applies: Candida albicans, antimycotic alone, [rHsAFP1] 0 μM, OD at 490 nm, mean ± SEM, n ≥ 3, read-out: MIC50 CAS or AMB.
Excerpt: To test whether rHsAFP1 is as potent as HsAFP1 purified from the seeds of coral bells, we analysed the antifungal activity of both peptides against F. culmorum, following the standard CLSI protocol M28-A2 [50], with minor modifications as previously described by Osborn and colleagues: an inoculum of approximately 10^4 spores/mL of F. culmorum was suspended in half strength PDB and added to a two-fold dilution series of rHsAFP1 in water. Seed-derived HsAFP1 was purified according to the protocol as previously described by Osborn and colleagues. […] The antifungal activity of rHsAFP1 against C. albicans was subsequently analysed according to the standard CLSI protocol M27-A3 [51] with minor modifications: an inoculum of approximately 10^6 cells/mL was suspended in RPMI-1640 medium and added to a two-fold dilution series of rHsAFP1 in water. The DMSO concentration was similar to that in the biofilm assays, i.e. 0.5% DMSO.
as §2, §1

For test [4], the system named is C. albicans and C. glabrata biofilms. Details: method as in PMID 24284780. The note with it: combination with caspofungin; cited from earlier work.
Setting [5] is: antimycotic alone, [rHsAFP1] 0 μM, n ≥ 3, read-out: BIC50 CAS or AMB.

Where a name gives a salt, the structure may show the parent alone. Read-outs that look alike come from different tables or passages of the source.

For `C[C@@H]1[C@H](O)[C@@H](C)/C=C/C=C/C=C/C=C/C=C/C=C/C=C/[C@H](O[C@@H]2O[C@H](C)[C@@H](O)[C@H](N)[C@@H]2O)C[C@@H]2O[C@](O)(C[C@@H](O)C[C@@H](O)[C@H](O)CC[C@@H](O)C[C@@H](O)CC(=O)O[C@H]1C)C[C@H](O)[C@H]2C(=O)O` [AMB alone, amphotericin B], the IC50 in test [1] (setting [5]) turned out to be 1230 ± 150 nM; in test [2] it was 1670 ± 300 nM. The MIC50 in test [3] was determined as 0.44 ± 0.06 µM.

With `CC[C@H](C)C[C@H](C)CCCCCCCCC(=O)N[C@H]1C[C@@H](O)[C@@H](NCCN)NC(=O)[C@@H]2[C@@H](O)CCN2C(=O)[C@H]([C@H](O)CCN)NC(=O)[C@H]([C@H](O)[C@@H](O)c2ccc(O)cc2)NC(=O)[C@@H]2C[C@@H](O)CN2C(=O)[C@H]([C@@H](C)O)NC1=O` [CAS alone, caspofungin], the IC50 in test [1] (CAS alone, [HsLin06] 0 μM, n ≥ 3, read-out: BIC50 CAS) came to 900 ± 50 nM; in test [1] (setting [5]), 720 ± 50 nM; in test [2] it was 400 ± 80 nM. Besides, the MIC50 in test [3] was 0.02 ± 0.01 µM.

As for `CN(C)CCOc1ccc(/C(=C(/CCCl)c2ccccc2)c2ccccc2)cc1` [toremifene citrate], the “fold reduction of the caspofungin BIC50” value in test [4] was “up to 20 fold”.
